This series in a line: Parallel artificial membrane permeability assay (PAMPA) for blood-brain barrier permeation, PSR4p analyzer. The note with it: for Pe (linear velocity of permeation): pH 7.4 buffer, 18 h, ambient temperature, literature compounds, averaged; for Papp at 18 h, 25 µg/mL: pig, PAMPA, pH 7.4. From the text:
In actual practice, a solution of known concentration of a compound or mixture of compounds in a buffer solution is separated from a buffer solution containing 0% concentration of said compound or mixture of compounds by a porous filter membrane impregnated with a mixture of brain polar lipid extract and dodecane in such a way that the surface of each buffer solution is in contact with opposite sides of said impregnated membrane. After a measured period of time, the concentration of said compound or mixture of compounds is determined for each buffer solution and the rate of diffusion is calculated.
In one embodiment of the invention, a 96-well plate filled with solutions of a known concentration of test sample in a buffer solution (donor) may be covered with a 96-well filter plate wherein the porous filter membrane is impregnated with a mixture of brain polar lipid extract and dodecane and the wells are filled with a buffer solution containing 0% concentration of test sample (acceptor) such that the surface of each buffer solution is in contact with opposite sides of said impregnated filter membrane; after a measured period of time, the donor plate and acceptor plate are separated, the concentration of sample in each buffer solution is determined and the rate of permeation is calculated.
In another embodiment of the invention, a high through-put permeability instrument such as the PSR4p instrument manufactured by pION Inc., Woburn, Mass. may be utilized. In this embodiment, a parallel artificial membrane assay (PAMPA) technique is employed using as artificial membrane a porous filter membrane impregnated with a mixture of brain polar lipid extract and dodecane.
A 100 μL volume of each stock solution is placed into one well of a 96-well plate, and the well plate is placed in a PSR4p permeability analyzer manufactured by pION, Inc., Woburn, Mass. A 10 μL volume of stock solution is robotically added to a deep 96-well plate containing 2.0 mL of pH 7.4 buffer solution. The resultant mixture is mechanically stirred to form the donor solution. A 200 μL volume of each donor solution is placed robotically into 3 wells of a 96-well plate to afford the donor plate. A vial containing 20 mg of porcine polar brain lipid extract manufactured by Avanti Polar Lipids, Inc., Alabaster, Ala., dissolved in 1 mL of dodecane is placed in the reservoir of the PSR4p instrument. A 4 μL volume of this brain lipid solution is placed on the filter surface of each well of a 96-well microtiter filter well plate manufactured by Millipore Corp., Bedford, Mass., wherein the filter is a porous (0.45 μm) polyvinylidenefluoride material approximately 104 μm in thickness. The microtiter plate is then manually placed on an orbital shaker for 1 minute to yield a 96-well microtiter plate having a filter membrane permeated with a 2.0% wt/vol solution of porcine polar brain lipid extract in dodecane. A 200 μL volume of pH 7.4 buffer is robotically inserted into the wells of the thus-prepared microtiter 96-well filter plate to give a receptor plate, this receptor plate is placed on the donor plate to form a sandwich and allowed to stand at ambient temperature for 18 h.
A plate washer manufactured by Tecan, Hombrechin-tikon, Switzerland is then used to prepare a UV transparent 96-well plate (UV plate). The receptor plate is removed from the sandwich, a 150 μL volume of the receptor solution is robotically placed in the UV plate, and the UV absorption at 190–500 nm of each receptor well is recorded. The UV plate is then replaced in the plate washer, washed again and a 150 μL volume of the donor solution is robotically placed in the UV plate and the UV absorption at 190–500 nm of each donor well is recorded.
On the technique in general: The PAMPA barrier holds no transporters, so it reflects passive diffusion.

Molecules are shown by their SMILES.

By Papp is commonly meant a coefficient for how fast a substance crosses the barrier. A low value points to poor permeation.

Regarding `C[C@]12CCC(=O)C=C1CC[C@@H]1[C@@H]2[C@@H](O)C[C@]2(C=O)[C@@H](C(=O)CO)CC[C@@H]12` [Aldosterone], the “Pe (linear velocity of permeation)” value is reported as 1.19 10^−6 cm/s and the Papp at 18 h, 25 µg/mL was less than 2 ×10⁻⁶ cm/s.

For `Cc1nnc2n1-c1ccc(Cl)cc1C(c1ccccc1)=NC2` [Alprazolam], the “Pe (linear velocity of permeation)” value is given as 5.44 10^−6 cm/s and the apparent permeability (Papp) at 18 h, 25 µg/mL was greater than 4 ×10⁻⁶ cm/s.

Regarding `COc1ccc(CCN2CCC(Nc3nc4ccccc4n3Cc3ccc(F)cc3)CC2)cc1` [Astemizole], the “Pe (linear velocity of permeation)” value is reported as 10.66 10^−6 cm/s and the apparent permeability coefficient (Papp) at 18 h, 25 µg/mL is greater than 4 ×10⁻⁶ cm/s.

For `CN(C)CCCN1c2ccccc2Sc2ccc(Cl)cc21` [Chlorpromazine], the “Pe (linear velocity of permeation)” value was 6.36 10^−6 cm/s and the apparent permeability (Papp) at 18 h, 25 µg/mL is greater than 4 ×10⁻⁶ cm/s.

Consider `CN1C(=O)CC(=O)N(c2ccccc2)c2cc(Cl)ccc21` [Clobazam], for which the “Pe (linear velocity of permeation)” value was 16.85 10^−6 cm/s and the apparent permeability coefficient (Papp) at 18 h, 25 µg/mL is greater than 4 ×10⁻⁶ cm/s.

As for `NCCc1ccc(O)c(O)c1` [Dopamine], the “Pe (linear velocity of permeation)” value is reported as 0.16 10^−6 cm/s and the Papp at 18 h, 25 µg/mL was less than 2 ×10⁻⁶ cm/s.

Turning to `Cc1cc(NC(=O)C2=C(O)c3ccccc3S(=O)(=O)N2C)no1` [Isoxicam], the “Pe (linear velocity of permeation)” value is 0.25 10^−6 cm/s and the apparent permeability coefficient (Papp) at 18 h, 25 µg/mL was less than 2 ×10⁻⁶ cm/s.

In the case of `CN(C)C(=O)C(CCN1CCC(O)(c2ccc(Cl)cc2)CC1)(c1ccccc1)c1ccccc1` [Loperamide], the “Pe (linear velocity of permeation)” value is listed as 0.00 10^−6 cm/s and the Papp at 18 h, 25 µg/mL is less than 2 ×10⁻⁶ cm/s.

On to `CN1C(C(=O)Nc2ccccn2)=C(O)c2ccccc2S1(=O)=O` [Piroxicam], for which the “Pe (linear velocity of permeation)” value is 2.53 10^−6 cm/s and the Papp at 18 h, 25 µg/mL is less than 2 ×10⁻⁶ cm/s.

As for `CN(C)CCCN1c2ccccc2Sc2ccccc21` [Promazine], the “Pe (linear velocity of permeation)” value is given as 8.84 10^−6 cm/s and the Papp at 18 h, 25 µg/mL is greater than 4 ×10⁻⁶ cm/s.

`CN1C(C(=O)Nc2ccccn2)=C(O)c2sccc2S1(=O)=O` [Tenoxicam]: the “Pe (linear velocity of permeation)” value is listed as 0.14 10^−6 cm/s and the Papp at 18 h, 25 µg/mL was less than 2 ×10⁻⁶ cm/s.

Regarding `CC(C)(C)c1ccc(C(O)CCCN2CCC(C(O)(c3ccccc3)c3ccccc3)CC2)cc1` (stereo not shown) [Terfenadine], the “Pe (linear velocity of permeation)” value was 0.00 10^−6 cm/s and the Papp at 18 h, 25 µg/mL was less than 2 ×10⁻⁶ cm/s.

The compound `CCCC(C)C1(CC)C(=O)NC(=S)NC1=O` (stereo not shown) [Thiopental] displayed a Papp at 18 h, 25 µg/mL greater than 4 ×10⁻⁶ cm/s.

Source of the values: patent US7060428B2, “Methods and compositions useful for the prediction of blood-brain barrier permeation” (Wyeth, priority 2001, dated 2006).
